{"source": "patent US20130096170A1", "about": "(priority 2011, published 2013)", "key": {"[1]": {"details": "human, in vivo"}, "[2]": {"assay": "clinical", "details": "human, plasma, intravenous"}, "[3]": {"tested_on": "neonates ≥28 to ≤44 weeks gestational age"}, "[4]": {"details": "in vivo"}, "[5]": {"details": "age Group I, dose level 2 (Dex 0.1), N = 6"}}}
{"smiles": "Cc1cccc([C@H](C)c2cnc[nH]2)c1C", "note": "[dexmedetomidine]", "values": [{"measurement": "CL, predicted", "setting": "[1]", "value": 47.8, "unit": "L/h"}, {"measurement": "Exponent of power relationship between Q and age, Population Mean", "setting": "[1]", "value": "−0.509"}, {"measurement": "IIV in Q", "setting": "[1]", "value": 117, "unit": "% CV"}, {"measurement": "Proportional shift in allometric exponent for Vc for neonates, Population Mean", "setting": "[1]", "value": 0.513}, {"measurement": "Q, model value", "setting": "[1]", "value": 68.21, "unit": "L/h"}, {"measurement": "Slope of linear age effect on Vp, Population Mean", "setting": "[1]", "value": "−1.43", "unit": "L/y"}, {"measurement": "Vc, model value", "setting": "[1]", "value": 6.22, "unit": "L"}, {"measurement": "Vp, model value", "setting": "[1]", "value": 13.21, "unit": "L"}, {"measurement": "interindividual variability in CL, Vc, and Vp", "setting": "[1]", "value": "35-55 % CV"}, {"measurement": "terminal elimination (β) half-life", "setting": "[1]", "value": 1.8, "unit": "h"}, {"measurement": "unexplained interindividual variability (IIV) in Q", "setting": "[1]", "value": 163, "unit": "% CV"}, {"measurement": "volume of distribution, predicted", "setting": "[1]", "value": 114.6, "unit": "L"}, {"measurement": "clearance", "setting": "[2]; CL, Geo. Mean of individual Bayesian estimates, 1 month-<6 months (n = 14)", "value": 116, "unit": "mL/min"}, {"measurement": "clearance", "setting": "[2]; CL, Geo. Mean of individual Bayesian estimates, 2 y-<6 y (n = 26)", "value": 265, "unit": "mL/min"}, {"measurement": "clearance", "setting": "[2]; CL, Geo. Mean of individual Bayesian estimates, 6 months-<12 months (n = 16)", "value": 136, "unit": "mL/min"}, {"measurement": "clearance", "setting": "[2]; CL, Geo. Mean of individual Bayesian estimates, 6 y-<17 y (n = 29)", "value": 408, "unit": "mL/min"}, {"measurement": "clearance", "setting": "[2]; CL, Geo. Mean of individual Bayesian estimates, 12 months-<24 months (n = 13)", "value": 179, "unit": "mL/min"}, {"measurement": "clearance", "setting": "[2]; CL, Geo. Mean of individual Bayesian estimates, 28 weeks GA-<1 month (n = 28)", "value": 38, "unit": "mL/min"}, {"measurement": "clearance", "setting": "[2]; CL, elimination clearance (population mean), final population PK model, Examples 5, 3, 1 and 7", "value": 178, "unit": "mL/min"}, {"measurement": "Vd", "setting": "[2]; Volume of Distribution, Geo. Mean of individual Bayesian estimates, 1 month-<6 months (n = 14)", "value": 17.3, "unit": "L"}, {"measurement": "Vd", "setting": "[2]; Volume of Distribution, Geo. Mean of individual Bayesian estimates, 2 y-<6 y (n = 26)", "value": 33.7, "unit": "L"}, {"measurement": "Vd", "setting": "[2]; Volume of Distribution, Geo. Mean of individual Bayesian estimates, 6 months-<12 months (n = 16)", "value": 21.2, "unit": "L"}, {"measurement": "Vd", "setting": "[2]; Volume of Distribution, Geo. Mean of individual Bayesian estimates, 6 y-<17 y (n = 29)", "value": 51.6, "unit": "L"}, {"measurement": "Vd", "setting": "[2]; Volume of Distribution, Geo. Mean of individual Bayesian estimates, 12 months-<24 months (n = 13)", "value": 23.9, "unit": "L"}, {"measurement": "Vd", "setting": "[2]; Volume of Distribution, Geo. Mean of individual Bayesian estimates, 28 weeks GA-<1 month (n = 28)", "value": 14.1, "unit": "L"}, {"measurement": "clearance", "setting": "[2]; Weight-Adjusted CL, Geometric Mean (individual Bayesian estimates), Including Additional 11 Subjects, 1 month-<6 months (n = 14)", "value": 20.2, "unit": "mL/min/kg"}, {"measurement": "clearance", "setting": "[2]; Weight-Adjusted CL, Geometric Mean (individual Bayesian estimates), Including Additional 11 Subjects, 2 y-<6 y (n = 26)", "value": 18.5, "unit": "mL/min/kg"}, {"measurement": "clearance", "setting": "[2]; Weight-Adjusted CL, Geometric Mean (individual Bayesian estimates), Including Additional 11 Subjects, 6 months-<12 months (n = 16)", "value": 18.5, "unit": "mL/min/kg"}, {"measurement": "clearance", "setting": "[2]; Weight-Adjusted CL, Geometric Mean (individual Bayesian estimates), Including Additional 11 Subjects, 6 y-<17 y (n = 29)", "value": 13.3, "unit": "mL/min/kg"}, {"measurement": "clearance", "setting": "[2]; Weight-Adjusted CL, Geometric Mean (individual Bayesian estimates), Including Additional 11 Subjects, 12 months-<24 months (n = 13)", "value": 17.7, "unit": "mL/min/kg"}, {"measurement": "clearance", "setting": "[2]; Weight-Adjusted CL, Geometric Mean (individual Bayesian estimates), Including Additional 11 Subjects, 28 weeks GA-<1 month (n = 28)", "value": 15.5, "unit": "mL/min/kg"}, {"measurement": "Vd", "setting": "[2]; Weight-Adjusted Vd, Geometric Mean (individual Bayesian estimates), Including Additional 11 Subjects, 1 month-<6 months (n = 14)", "value": 3.02, "unit": "L/kg"}, {"measurement": "Vd", "setting": "[2]; Weight-Adjusted Vd, Geometric Mean (individual Bayesian estimates), Including Additional 11 Subjects, 2 y-<6 y (n = 26)", "value": 2.35, "unit": "L/kg"}, {"measurement": "Vd", "setting": "[2]; Weight-Adjusted Vd, Geometric Mean (individual Bayesian estimates), Including Additional 11 Subjects, 6 months-<12 months (n = 16)", "value": 2.89, "unit": "L/kg"}, {"measurement": "Vd", "setting": "[2]; Weight-Adjusted Vd, Geometric Mean (individual Bayesian estimates), Including Additional 11 Subjects, 6 y-<17 y (n = 29)", "value": 1.68, "unit": "L/kg"}, {"measurement": "Vd", "setting": "[2]; Weight-Adjusted Vd, Geometric Mean (individual Bayesian estimates), Including Additional 11 Subjects, 12 months-<24 months (n = 13)", "value": 2.35, "unit": "L/kg"}, {"measurement": "Vd", "setting": "[2]; Weight-Adjusted Vd, Geometric Mean (individual Bayesian estimates), Including Additional 11 Subjects, 28 weeks GA-<1 month (n = 28)", "value": 5.74, "unit": "L/kg"}, {"measurement": "TEAE: Anger, subjects", "setting": "[3]; [5]", "value": "1 (16.7%)"}, {"measurement": "TEAE: Blood bilirubin unconjugated increased, subjects", "setting": "[3]; [5]", "value": "1 (16.7%)"}, {"measurement": "TEAE: Bradycardia, subjects", "setting": "[3]; [5]", "value": "1 (16.7%)"}, {"measurement": "TEAE: Cardiac disorders, subjects", "setting": "[3]; [5]", "value": "1 (16.7%)"}, {"measurement": "TEAE: Cardio-respiratory arrest, subjects", "setting": "[3]; [5]", "value": "1 (16.7%)"}, {"measurement": "TEAE: General disorders and administration site conditions, subjects", "setting": "[3]; [5]", "value": "2 (33.3%)"}, {"measurement": "TEAE: Haematuria, subjects", "setting": "[3]; [5]", "value": "1 (16.7%)"}, {"measurement": "TEAE: Hepatobiliary disorders, subjects", "setting": "[3]; [5]", "value": "1 (16.7%)"}, {"measurement": "TEAE: Hyperbilirubinaemia, subjects", "setting": "[3]; [5]", "value": "1 (16.7%)"}, {"measurement": "TEAE: Hyperglycaemia, subjects", "setting": "[3]; [5]", "value": "1 (16.7%)"}, {"measurement": "TEAE: Hypocalcaemia, subjects", "setting": "[3]; [5]", "value": "1 (16.7%)"}, {"measurement": "TEAE: Hypoproteinaemia, subjects", "setting": "[3]; [5]", "value": "1 (16.7%)"}, {"measurement": "TEAE: Infections and infestations, subjects", "setting": "[3]; [5]", "value": "1 (16.7%)"}, {"measurement": "TEAE: Infusion site extravasation, subjects", "setting": "[3]; [5]", "value": "1 (16.7%)"}, {"measurement": "TEAE: Investigations, subjects", "setting": "[3]; [5]", "value": "2 (33.3%)"}, {"measurement": "TEAE: Oedema, subjects", "setting": "[3]; [5]", "value": "1 (16.7%)"}, {"measurement": "TEAE: Oxygen saturation decreased, subjects", "setting": "[3]; [5]", "value": "1 (16.7%)"}, {"measurement": "TEAE: Psychiatric disorders, subjects", "setting": "[3]; [5]", "value": "1 (16.7%)"}, {"measurement": "TEAE: Renal and urinary disorders, subjects", "setting": "[3]; [5]", "value": "1 (16.7%)"}, {"measurement": "TEAE: Sepsis, subjects", "setting": "[3]; [5]", "value": "1 (16.7%)"}, {"measurement": "TEAE: Metabolism and nutrition disorders, subjects", "setting": "[3]; human, in vivo", "value": "3 (50.0%)"}, {"measurement": "TEAE: Number of Events", "setting": "[3]; human, in vivo", "value": 18}, {"measurement": "patients with adverse events", "setting": "[3]; human, in vivo", "value": 67, "unit": "%"}, {"measurement": "subjects with treatment-emergent adverse effects assessed as related to treatment", "setting": "[3]; human, in vivo", "value": 2, "unit": "subjects"}, {"measurement": "safety and tolerability", "setting": "[3]; in vivo", "value": "safe and well tolerated"}, {"measurement": "severe treatment-emergent adverse effects", "setting": "[3]; in vivo", "value": "no severe"}, {"measurement": "power-model slope (95% confidence interval) for AUC0-inf", "setting": "[4]; human", "value": "1.263 (0.820, 1.706)"}, {"measurement": "power-model slope (95% confidence interval) for Cmax", "setting": "[4]; human", "value": "0.898 (0.652, 1.143)"}, {"measurement": "pharmacokinetic linearity / dose proportionality", "setting": "[4]", "value": "linearity and dose proportionality"}]}
